# Results from PMC8220418, “A fragment-based approach to assess the ligandability of ArgB, ArgC, ArgD and ArgF in the L-arginine biosynthetic pathway of Mycobacterium tuberculosis” (Computational and Structural Biotechnology Journal, 2021).
# Test system: M. tuberculosis ΔargB
# Type: cell-based, Mycobacterium tuberculosis
row,SMILES,Inhibitory activity on growth with arginine present
1,"O=c1cc[nH]c2c(C(F)(F)F)cccc12 [NMR446, 8-(trifluoromethyl)-1H-quinolin-4-one]",no inhibitory activity
2,"O=c1cc(C(F)(F)F)[nH]c2c(C(F)(F)F)cccc12 [NMR711, 2,8-bis(trifluoromethyl)-1H-quinolin-4-one]",inhibitory
3,"NC(N)=NOCC[C@H](N)C(=O)O [L-canavanine, reference compound]",no inhibitory activity
